Results on 17 compounds are retold here after US7009052B2, “Sulfonamide derivatives” (Warner Lambert Company LLC, priority 2003, dated 2006).

This assay concerns the target T1, androgen receptor (Homo sapiens, UniProt P10275).
T1 sequence (P10275 1-920 Q868H): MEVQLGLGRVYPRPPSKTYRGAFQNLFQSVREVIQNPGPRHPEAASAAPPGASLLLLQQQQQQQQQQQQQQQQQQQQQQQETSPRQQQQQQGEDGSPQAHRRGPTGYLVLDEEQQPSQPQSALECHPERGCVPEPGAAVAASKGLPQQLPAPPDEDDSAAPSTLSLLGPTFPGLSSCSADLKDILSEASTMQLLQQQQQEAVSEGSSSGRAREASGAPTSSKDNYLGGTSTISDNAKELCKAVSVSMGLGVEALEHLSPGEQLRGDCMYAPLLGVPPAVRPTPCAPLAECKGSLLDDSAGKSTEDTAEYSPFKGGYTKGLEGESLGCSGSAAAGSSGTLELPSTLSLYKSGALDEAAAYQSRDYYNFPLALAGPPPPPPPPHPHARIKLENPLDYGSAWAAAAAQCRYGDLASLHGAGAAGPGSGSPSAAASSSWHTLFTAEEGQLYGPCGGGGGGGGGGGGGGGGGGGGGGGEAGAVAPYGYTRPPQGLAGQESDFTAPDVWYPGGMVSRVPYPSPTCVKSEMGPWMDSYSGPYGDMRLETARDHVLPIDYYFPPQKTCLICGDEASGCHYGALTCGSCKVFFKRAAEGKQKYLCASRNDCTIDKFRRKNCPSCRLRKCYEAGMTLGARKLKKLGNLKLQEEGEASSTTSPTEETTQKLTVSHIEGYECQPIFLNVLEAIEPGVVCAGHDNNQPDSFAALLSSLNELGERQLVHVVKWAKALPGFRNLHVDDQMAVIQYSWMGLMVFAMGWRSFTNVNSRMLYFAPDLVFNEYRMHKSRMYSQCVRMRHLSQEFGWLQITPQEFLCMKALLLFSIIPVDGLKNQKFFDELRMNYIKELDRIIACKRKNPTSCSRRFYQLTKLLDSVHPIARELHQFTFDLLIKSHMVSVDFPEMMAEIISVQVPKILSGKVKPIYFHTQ
The experiment in a line: AR Antagonist Cell Assay (MMTV-luciferase reporter, DHT-induced). It counts as cell-based. Conditions: MDA-MB453-MMTV clone 54-19 cells, 100 pM DHT, 17 hr. The essentials:
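Stably transfected MDA-MB453 cells carrying an ARE-containing MMTV promoter–firefly luciferase reporter, pretreated 30 min with compound at 10 uM or 1 uM in 1% charcoal-treated serum medium. Then stimulated with 100 pM DHT for 17 hr at 37° C. and luminescence read; expressed as % inhibition of DHT-induced signal.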

`Cc1cc(NS(=O)(=O)c2ccc3[nH]c(=O)cc(C(F)(F)F)c3c2)n(C)n1` [Example 85, 2-Oxo-4-trifluoromethyl-1,2-dihydroquinoline-6-sulfonic acid(2,5-dimethyl-2H-pyrazol-3-yl)amide] returned a half-maximal inhibitory concentration (IC50) of over 10 µM. The compound `CCN(Cc1ccccc1)S(=O)(=O)c1ccc2c(c1)c(C(F)(F)F)cc(=O)n2C` [Example 10, 1-Methyl-2-oxo-4-trifluoromethyl-1,2-dihydroquinoline-6-sulfonicacid benzylethylamide] came in with a half-inhibitory concentration (IC50) of 6.35 µM.

Compound `Cc1ccc(F)c(CNS(=O)(=O)c2ccc3[nH]c(=O)cc(C(F)(F)F)c3c2)c1Cl` [Example 152, 2-Oxo-4-trifluoromethyl-1,2-dihydroquinoline-6-sulfonic acid2-chloro-6-fluoro-3-methylbenzylamide] yielded an IC50 of over 10 µM.

Regarding `N#Cc1cccc(NS(=O)(=O)c2ccc3[nH]c(=O)cc(C(F)(F)F)c3c2)c1` [Example 87, 2-Oxo-4-trifluoromethyl-1,2-dihydroquinoline-6-sulfonic acid(3-cyanophenyl)amide], the IC50 is 3.55 µM.

`CCOc1ccc(NS(=O)(=O)c2ccc3c(c2)c(C(F)(F)F)cc(=O)n3C)cc1` [Example 44, 1-Methyl-2-oxo-4-trifluoromethyl-1,2-dihydroquinoline-6-sulfonicacid (4-ethoxyphenyl)amide] displayed a half-inhibitory concentration (IC50) of 3.76 µM.

The compound `CN(C)CCN(C)S(=O)(=O)c1ccc2[nH]c(=O)cc(C(F)(F)F)c2c1` [Example 72] gave a concentration for half-maximal inhibition (IC50) of over 10 µM. As for `Cn1c(=O)cc(C(F)(F)F)c2cc(S(=O)(=O)Nc3cccc(OC(F)F)c3)ccc21` [Example 38, 1-Methyl-2-oxo-4-trifluoromethyl-1,2-dihydroquinoline-6-sulfonicacid (3-difluoromethoxy-phenyl)amide], the figure is 5.63 µM.

With `Cn1c(=O)cc(C(F)(F)F)c2cc(S(=O)(=O)Nc3cccc(OC(F)(F)F)c3)ccc21` [Example 41, 1-Methyl-2-oxo-4-trifluoromethyl-1,2-dihydroquinoline-6-sulfonicacid (3-trifluoromethoxy-phenyl)amide], half-maximal inhibition (IC50) required 3.86 µM. With `CSc1n[nH]c(NS(=O)(=O)c2ccc3c(c2)c(C(F)(F)F)cc(=O)n3C)c1C#N` [Example 35, 1-Methyl-2-oxo-4-trifluoromethyl-1,2-dihydroquinoline-6-sulfonicacid (4-cyano-5-methylsulfanyl-2H-pyrazol-3-yl)amide], the 50% inhibitory concentration (IC50) was over 10 µM. Compound `O=c1cc(C(F)(F)F)c2cc(S(=O)(=O)NCCC3=CCCCC3)ccc2[nH]1` [Example 132, 2-Oxo-4-trifluoromethyl-1,2-dihydroquinoline-6-sulfonic acid(2-cyclohex-1-enylethyl)amide] registered a half-maximal inhibitory concentration (IC50) of 0.21 µM. `CC(=O)c1cccc(NS(=O)(=O)c2ccc3c(c2)c(C(F)(F)F)cc(=O)n3C)c1` [Example 24, 1-Methyl-2-oxo-4-trifluoromethyl-1,2-dihydroquinoline-6-sulfonicacid (3-acetylphenyl)amide] registered an IC50 of 4.23 µM. Against the preceding compound, the IC50 is about 20-fold higher. `CC(CNS(=O)(=O)c1ccc2[nH]c(=O)cc(C(F)(F)F)c2c1)c1ccccc1` (centres unmarked) [Example 131, 2-Oxo-4-trifluoromethyl-1,2-dihydroquinoline-6-sulfonic acid(2-phenylpropyl)amide] had an IC50 of 0.35 µM. This IC50 is about 12-fold lower than that of the compound before. Consider `O=c1cc(C(F)(F)F)c2cc(S(=O)(=O)Nc3cccc(C(F)(F)F)c3)ccc2[nH]1` [Example 109, 2-Oxo-4-trifluoromethyl-1,2-dihydroquinoline-6-sulfonic acid(3-trifluoromethylphenyl)amide], for which the half-maximal inhibitory concentration (IC50) came out at 0.21 µM. Compared with the last compound, the IC50 is about 1.7-fold lower. As for `O=c1cc(C(F)(F)F)c2cc(S(=O)(=O)Nc3ccc4ncccc4c3)ccc2[nH]1` [Example 93, 2-Oxo-4-trifluoromethyl-1,2-dihydroquinoline-6-sulfonic acidquinolin-6-ylamide], the figure is 3.46 µM. As for `CC(C)N(C)S(=O)(=O)c1ccc2[nH]c(=O)cc(C(F)(F)F)c2c1` [Example 70, 2-Oxo-4-trifluoromethyl-1,2-dihydroquinoline-6-sulfonic acidisopropylmethylamide], the figure is 0.55 µM.

On to `COc1ccccc1NS(=O)(=O)c1ccc2c(c1)c(C(F)(F)F)cc(=O)n2C` [Example 20, 1-Methyl-2-oxo-4-trifluoromethyl-1,2-dihydroquinoline-6-sulfonicacid (2-methoxyphenyl)amide], for which the IC50 was over 10 µM. As for `Cn1c(=O)cc(C(F)(F)F)c2cc(S(=O)(=O)NCCSC(C)(C)C)ccc21` [Example 61, 1-Methyl-2-oxo-4-trifluoromethyl-1,2-dihydroquinoline-6-sulfonicacid (2-tert-butylsulfanylethyl)amide], the figure is 1.53 µM.
